# Like-named read-outs stand apart in the source and are kept apart here.
# System: HCV replicon RNA replication in human Huh7 hepatoma cells
# Assay: HCV replicon assay (activity levels from either or both of HCV replicon assay 1, Huh7/Clone A RT-qPCR, and assay 2, Huh7 ET luc-ubi-neo/ET)
# Type: cell-based, Hepatitis C virus (HCV)
# Conditions: 48 hours, 72 hours, Luc activity or RT-PCR, read-out: inhibit HCV replication at IC50 levels or estimated IC50 levels
# From the text: The HCV replicon assay is a cell-culture system that mimics in vivo HCV replication and provides a system to study HCV replication in vitro. It was created by transfecting cloned viral RNA derived from a consensus HCV genomic sequence into human Huh7 hepatoma cells that are semi-permissive for viral RNA production (Lohmann V., Korner F., Koch J.-O., Herian U., Theilmann L. and Bartenschlager R. (1999). Replication of subgenomic Hepatitis C virus RNAs in a hepatoma cell line. Science 285, 110-113 and Blight K. J., Kolykhalov A. A. and Rice C. M. (2000). Efficient initiation of HCV RNA Replication in cell culture. Science 290, […]). These transfected cell lines contain a subgenomic HCV RNA genome that includes (1) the HCV 5′NTR fused to 12 amino acids of the capsid coding region, (2) the neomycin phosphotransferase gene (Neo) as a selectable marker, (3) the internal ribosome entry site (IRES) from encephalomyocarditis virus (EMCV) that directs translation of HCV non-structural proteins (variously NS2 or NS3 to NS5B), and (4) the 3′ NTR. Replicon-containing cells autonomously and persistently replicate HCV RNA that can be measured quantitatively by real-time qPCR. Therefore, the replicon system facilitates quantitative assessment of anti-viral activity by monitoring changes in HCV RNA replication in a cell-based assay.
# HCV replicon-containing cells (Huh7/Clone A) were routinely maintained in Clone A growth medium (DMEM medium [Invitrogen], supplemented with 10% Fetal Bovine Serum, 1% Non Essential Amino Acids and 1 g/L G418). Test compounds were dissolved in dimethyl sulfoxide (DMSO) to make 200× stock solutions for all doses prior to treatment.
# For the HCV replicon assay, Huh7/Clone A cells were trypsinized from culture flasks, seeded in 1 ml of Clone A growth medium without G418 at 4×10^4 cells per well in 24-well plates and incubated at 37° C. in a humidified CO2 (5%) incubator overnight. Following overnight incubation, compound solutions were added into wells in the same volume (5 μl of 200× compound stock per well) to give a final DMSO concentration of 0.5%. Three wells on each plate supplemented with 5 μl of DMSO served as untreated controls. For IC50 determinations, compounds were tested at 7 serial dilutions in triplicates from the starting stock solutions. The plates were incubated at 37° C. for 48 hours. After incubation, cells were harvested, transferred to 96-well plates, and subjected to total RNA extraction using the RNA Isolation Kit (RNeasy 96, Qiagen) according to the protocol described by the manufacture's RNeasy 96 Handbook (Qiagen).
# Total RNA eluted in 130 μl of RNase-free dH2O was quantitated by the RiboGreen Assay according to the supplier's protocol (Molecular Probe). Briefly, 5 μl of RNA samples were aliquoted in duplicate to a 96-well black microplate and a 96-well TaqMan Optical plate. RNA samples in the black microplate were mixed with 95 μl of diluted RiboGreen:reagent (1:250 dilution in TE buffer) and sample fluorescence was measured using a fluorescence microplate reader at standard fluorescein wavelengths (excitation ˜480 nm, emission ˜520 nm). Ribosomal RNA (Molecular Probe) was used as standard.
# TaqMan quantitative PCR (RT-qPCR) was used to quantitate the amount of HCV replicon RNA in each sample. The RT-qPCR reactions were performed in 25 μl on an ABI PRISM 7900 HT Sequence Detection System (Applied Biosystems). The reaction mixture contained 5 μl of total RNA (10-100 ng), 1× TaqMan Buffer A (Applied Biosystems), 5.5 mM MgCl2, 1.2 mM dNTP mix, 0.625 U of AmpliTaq Gold (Applied Biosystems), 5 U of MMLV reverse transcriptase (Promega), 5 U of rRNasin (Promega), 300 nM each of the forward and reverse primers, and 100 nM TaqMan MGB probe. Primers and probe were designed to hybridize to a portion of the neomycin resistance gene (neo) in the replicon and the sequences are as follows: forward primer 5′-GGCTACCTGCCCATTCGA-3′; reverse primer 5′-CCGGCTTCCATCCGAGTAC-3′; MGB probe 5′-CCACCAAGCGAAACA-3′. […]
# [1] = Hepatitis C virus, Huh-7, either or both HCV replicon assays: Huh7/Clone A
compound,measurement,setting,value
"O=c1c(-c2noc(Cc3ccccc3)n2)cn(Cc2ccc(Cl)cc2)c2cc(N3CCNCC3)c(F)cc12 [Compound 25, 3-(5-benzyl-[1,2,4]oxadiazol-3-yl)-1-(4-chloro-benzyl)-6-fluoro-7-piperazin-1-yl-1H-quinolin-4-one]",IC50,[1],< 2 µM
"O=c1c(-c2noc(Cc3ccccc3)n2)cn(Cc2ccc(Cl)cc2)c2cc(N3CCC(O)CC3)c(F)cc12 [Compound 26, 3-(5-benzyl-[1,2,4]oxadiazol-3-yl)-1-(4-chloro-benzyl)-6-fluoro-7-(4-hydroxy-piperidin-1-yl)-1H-quinolin-4-one]",IC50,[1],> 10 µM
"CC(=O)N1CCN(c2cc3c(cc2F)c(=O)c(-c2noc(Cc4ccccc4)n2)cn3Cc2ccc(Cl)cc2)CC1 [Compound 27, 7-(4-acetyl-piperazin-1-yl)-3-(5-benzyl-[1,2,4]oxadiazol-3-yl)-1-(4-chloro-benzyl)-6-fluoro-1H-quinolin-4-one]",IC50,[1],< 2 µM
"CN1CCN(c2cc3c(cc2F)c(=O)c(-c2noc(Cc4ccc(F)cc4)n2)cn3Cc2ccc(Cl)cc2)CC1 [Compound 28, 1-(4-chloro-benzyl)-6-fluoro-3-[5-(4-fluoro-benzyl)-[1,2,4]oxadiazol-3-yl]-7-(4-methyl-piperazin-1-yl)-1H-quinolin-4-one]",IC50,[1],< 2 µM
"CN1CCN(c2cc3c(cc2F)c(=O)c(-c2noc(C(CC(=O)O)c4ccccc4)n2)cn3Cc2ccc(Cl)cc2)CC1 (stereo not drawn) [Compound 31, 3-{3-[1-(4-chloro-benzyl)-6-fluoro-7-(4-methyl-piperazin-1-yl)-4-oxo-1,4-dihydro-quinolin-3-yl]-[1,2,4]oxadiazol-5-yl}-3-phenyl-propionic acid]",IC50,[1],> 10 µM
"CN1CCN(c2cc3c(cc2F)c(=O)c(-c2noc(Cc4ccc(F)cc4F)n2)cn3Cc2ccc(Cl)cc2)CC1 [Compound 32, 1-(4-chloro-benzyl)-3-[5-(2,4-difluoro-benzyl)-[1,2,4]oxadiazol-3-yl]-6-fluoro-7-(4-methyl-piperazin-1-yl)-1H-quinolin-4-one]",IC50,[1],> 10 µM
"CN1CCN(c2cc3c(cc2F)c(=O)c(-c2noc(Cc4c(F)cccc4F)n2)cn3Cc2ccc(Cl)cc2)CC1 [Compound 33, 1-(4-chloro-benzyl)-3-[5-(2,6-difluoro-benzyl)-[1,2,4]oxadiazol-3-yl]-6-fluoro-7-(4-methyl-piperazin-1-yl)-1H-quinolin-4-one]",IC50,[1],< 10 µM
"CN1CCN(c2cc3c(cc2F)c(=O)c(-c2noc(Cc4ccc(F)cc4)n2)cn3Cc2ccc(Cl)cc2F)CC1 [Compound 34, 1-(4-chloro-2-fluoro-benzyl)-6-fluoro-3-[5-(4-fluoro-benzyl)-[1,2,4]oxadiazol-3-yl]-7-(4-methyl-piperazin-1-yl)-1H-quinolin-4-one]",IC50,[1],< 2 µM
"CN1CCN(c2cc3c(cc2F)c(=O)c(-c2noc(Cc4ccccc4)n2)cn3Cc2ccc(C(F)(F)F)cc2F)CC1 [Compound 35, 3-(5-benzyl-[1,2,4]oxadiazol-3-yl)-6-fluoro-1-(2-fluoro-4-trifluoromethyl-benzyl)-7-(4-methyl-piperazin-1-yl)-1H-quinolin-4-one]",IC50,either or both HCV replicon assays: Huh7/Clone A,< 2 µM
"CN1CCN(c2cc3c(cc2F)c(=O)c(-c2noc(Cc4ccccc4)n2)cn3Cc2ccc(C(F)(F)F)cc2)CC1 [Compound 36, 3-(5-benzyl-[1,2,4]oxadiazol-3-yl)-6-fluoro-7-(4-methyl-piperazin-1-yl)-1-(4-trifluoromethyl-benzyl)-1H-quinolin-4-one]",IC50,[1],< 2 µM
"CN1CCN(c2cc3c(cc2F)c(=O)c(-c2noc(Cc4ccc(F)cc4)n2)cn3Cc2ccc(C(F)(F)F)cc2)CC1 [Compound 37, 6-fluoro-3-[5-(4-fluoro-benzyl)-[1,2,4]oxadiazol-3-yl]-7-(4-methyl-piperazin-1-yl)-1-(4-trifluoromethyl-benzyl)-1H-quinolin-4-one]",IC50,[1],< 2 µM
"O=c1c(-c2noc(Cc3ccccc3)n2)cn(Cc2ccc(C(F)(F)F)cc2F)c2cc(N3CCCNCC3)c(F)cc12 [Compound 38, 3-(5-benzyl-[1,2,4]oxadiazol-3-yl)-7-[1,4]diazepan-1-yl-6-fluoro-1-(2-fluoro-4-trifluoromethyl-benzyl)-1H-quinolin-4-one]",IC50,[1],< 0.5 µM
"CCCCCc1nc(-c2cn(Cc3ccc(C(F)(F)F)cc3F)c3cc(N4CCN(C)CC4)c(F)cc3c2=O)no1 [Compound 40, 6-fluoro-1-(2-fluoro-4-trifluoromethyl-benzyl)-7-(4-methyl-piperazin-1-yl)-3-(5-pentyl-[1,2,4]oxadiazol-3-yl)-1H-quinolin-4-one]",IC50,[1],< 2 µM
"CN1CCN(c2cc3c(cc2F)c(=O)c(-c2noc(Cc4ccccc4)n2)cn3Cc2c(F)cccc2Cl)CC1 [Compound 41, 3-(5-benzyl-[1,2,4]oxadiazol-3-yl)-1-(2-chloro-6-fluoro-benzyl)-6-fluoro-7-(4-methyl-piperazin-1-yl)-1H-quinolin-4-one]",IC50,[1],> 10 µM
"CN1CCN(c2cc3c(cc2F)c(=O)c(-c2noc(Cc4ccc(F)cc4)n2)cn3Cc2c(F)cccc2Cl)CC1 [Compound 42, 1-(2-chloro-6-fluoro-benzyl)-6-fluoro-3-[5-(4-fluoro-benzyl)-[1,2,4]oxadiazol-3-yl]-7-(4-methyl-piperazin-1-yl)-1H-quinolin-4-one]",IC50,[1],< 10 µM
"O=C(O)c1ccc2c(c1)c(=O)c(-c1noc(Cc3ccccc3)n1)cn2Cc1ccc(C(F)(F)F)cc1F [Compound 43, 3-(5-benzyl-[1,2,4]oxadiazol-3-yl)-1-(2-fluoro-4-trifluoromethyl-benzyl)-4-oxo-1,4-dihydro-quinoline-6-carboxylic acid]",IC50,[1],> 10 µM
"CN1CCN(c2cc3c(cc2F)c(=O)c(-c2noc(Cc4ccc(F)cc4)n2)cn3Cc2ccc(F)cc2F)CC1 [Compound 44, 1-(2,4-difluoro-benzyl)-6-fluoro-3-[5-(4-fluoro-benzyl)-[1,2,4]oxadiazol-3-yl]-7-(4-methyl-piperazin-1-yl)-1H-quinolin-4-one]",IC50,[1],< 2 µM
"CN1CCN(c2cc3c(cc2F)c(=O)c(-c2noc(Cc4ccccc4)n2)cn3Cc2ccccc2F)CC1 [Compound 45, 3-(5-benzyl-[1,2,4]oxadiazol-3-yl)-6-fluoro-1-(2-fluoro-benzyl)-7-(4-methyl-piperazin-1-yl)-1H-quinolin-4-one]",IC50,[1],< 10 µM
"CN1CCN(c2cc3c(cc2F)c(=O)c(-c2noc(Cc4cc(F)cc(F)c4)n2)cn3Cc2ccc(Cl)cc2)CC1 [Compound 46, 1-(4-chloro-benzyl)-3-[5-(3,5-difluoro-benzyl)-[1,2,4]oxadiazol-3-yl]-6-fluoro-7-(4-methyl-piperazin-1-yl)-1H-quinolin-4-one]",IC50,[1],< 10 µM
"CN1CCN(c2cc3c(cc2F)c(=O)c(-c2noc(Cc4ccc(F)cc4)n2)cn3Cc2ccccc2F)CC1 [Compound 47, 6-fluoro-3-[5-(4-fluoro-benzyl)-[1,2,4]oxadiazol-3-yl]-1-(2-fluoro-benzyl)-7-(4-methyl-piperazin-1-yl)-1H-quinolin-4-one]",IC50,[1],< 10 µM
"CN1CCN(c2cc3c(cc2F)c(=O)c(-c2noc(Cc4ccccc4)n2)cn3Cc2c(F)cccc2F)CC1 [Compound 48, 3-(5-benzyl-[1,2,4]oxadiazol-3-yl)-1-(2,6-difluoro-benzyl)-6-fluoro-7-(4-methyl-piperazin-1-yl)-1H-quinolin-4-one]",IC50,[1],< 10 µM

# Reference: patent US20070287699A1, “ANTIVIRAL AGENTS” (ViroBay, Inc., priority 2006, published 2007)
